{"source": "patent US4913905A", "about": "“Transdermal therapeutic systems for active ingredient combinations” (priority 1987, dated 1990)", "key": {"[1]": {"assay": "Therapeutically effective daily dose (oral / transdermal)", "type": "in vivo", "conditions": "estimated values"}, "[2]": {"conditions": "cited from earlier work"}, "[3]": {"assay": "In vitro flux through pig skin in a Franz diffusion cell (saturated ethanolic solution or system of Example 1)", "conditions": "for skin permeation in vitro, alcoholic solution: saturated ethanolic solution", "method": "The flux of progesterone and synthetic progestrone derivatives is measured in vitro as follows:\nAfter 24 hours, an aliquot of the aqueous acceptor solution from the acceptor compartment is examined for content of the relevant progesterone derivative and, from this, the flux in μg cm^2 ×h is calculated."}, "[4]": {"conditions": "vehicle of DE-A No. 3 205 258, e.g. ethanol gel; systems of acceptable size; cited from earlier work"}, "endometrium carcinomas": {"system": "endometrium carcinomas", "conditions": "following treatment; numerous studies in the USA; cited from earlier work"}, "[5]": {"conditions": "cited from earlier work", "remark": "listed apart in the source"}}, "data": [{"smiles": "C#C[C@]1(O)CC[C@H]2[C@@H]3CCC4=CC(=O)CC[C@@H]4[C@H]3CC[C@@]21CC", "note": "[d-norgestrel]", "values": [{"measurement": "therapeutically effective daily dose, transdermal", "setting": "[1]", "value": 0.05, "unit": "mg"}, {"measurement": "therapeutically effective daily dose, oral", "setting": "[2]", "value": "0.07 to 0.15", "unit": "mg"}, {"measurement": "skin permeation in vitro, alcoholic solution", "setting": "[3]; pig skin, 24 hours", "value": 0.028, "unit": "μg/cm^2 · h"}]}, {"smiles": "C#C[C@]1(O)CC[C@H]2[C@@H]3CCC4=CC(=O)CC[C@@H]4[C@H]3CC[C@@]21C", "note": "[norethisterone]", "values": [{"measurement": "therapeutically effective daily dose, transdermal", "setting": "[1]", "value": 0.2, "unit": "mg"}, {"measurement": "therapeutically effective daily dose, oral", "setting": "[2]", "value": "0.5 to 5", "unit": "mg"}, {"measurement": "necessary surface area of system", "setting": "[3]; estimated values", "value": 350, "unit": "cm^2"}, {"measurement": "skin permeation in vitro, alcoholic solution", "setting": "[3]; pig skin, 24 hours", "value": 0.024, "unit": "μg/cm^2 · h"}]}, {"smiles": "CC(=O)[C@H]1CC[C@H]2[C@@H]3CCC4=CC(=O)CC[C@]4(C)[C@H]3CC[C@]12C", "note": "[progesterone]", "values": [{"measurement": "therapeutically effective daily dose, transdermal", "setting": "[1]", "value": 2, "unit": "mg"}, {"measurement": "therapeutically effective daily dose, oral", "setting": "[2]", "value": "100 to 300", "unit": "mg"}, {"measurement": "amount that passes through the skin for an adequate therapeutic effect", "setting": "[4]", "value": "not sufficient"}, {"measurement": "skin permeation in vitro, alcoholic solution", "setting": "[3]; pig skin, 24 hours", "value": 3.0, "unit": "μg/cm^2 · h"}, {"measurement": "skin permeation in vitro, system according Example 1", "setting": "[3]; transdermal therapeutic system according to Example 1, pig skin, 24 hours", "value": 0.073, "unit": "μg/cm^2 · h"}]}, {"smiles": "C[C@]12CC[C@@H]3c4ccc(O)cc4CC[C@H]3[C@@H]1CC[C@@H]2O", "note": "[oestradiol, 17β-oestradiol]", "values": [{"measurement": "times higher incidence of endometrium carcinomas", "setting": "endometrium carcinomas", "value": "3.3 to 6", "unit": "times"}, {"measurement": "resorption following oral administration", "setting": "[5]", "value": "unsatisfactory"}, {"measurement": "undesirable side-effects", "setting": "[5]; oral, high dosage, frequent occurrence", "value": "nausea, thromboembolism"}, {"measurement": "metabolisation by the liver", "setting": "[5]; oral", "value": "rapid"}]}, {"smiles": "CCCCC(=O)O[C@H]1CC[C@H]2[C@@H]3CCc4cc(O)ccc4[C@H]3CC[C@]12C", "note": "[oestradiol valerate, estradiol-17-valerate]", "values": [{"measurement": "times higher incidence of endometrium carcinomas", "setting": "endometrium carcinomas", "value": "3.3 to 6", "unit": "times"}]}, {"smiles": "C#C[C@]1(OC(C)=O)CC[C@H]2[C@@H]3CCC4=CC(=O)CC[C@@H]4[C@H]3CC[C@@]21C", "note": "[norethisterone acetate, norethisterone-17-acetate]", "values": [{"measurement": "therapeutically effective daily dose, transdermal", "setting": "[1]", "value": 2, "unit": "mg"}, {"measurement": "therapeutically effective daily dose, oral", "setting": "[2]", "value": "0.5 to 5", "unit": "mg"}]}, {"smiles": "CC(=O)O[C@]1(C(C)=O)CC[C@H]2[C@@H]3C[C@H](C)C4=CC(=O)CC[C@]4(C)[C@H]3CC[C@@]21C", "note": "[medroxyprogesterone acetate]", "values": [{"measurement": "therapeutically effective daily dose, transdermal", "setting": "[1]", "value": 2, "unit": "mg"}, {"measurement": "therapeutically effective daily dose, oral", "setting": "[2]", "value": "2.5 to 10", "unit": "mg"}]}]}
